Experimental data reported in US10323000B2, “Indole derivatives and their use in neurodegenerative diseases” (priority 2014, dated 2019).

target: human P2X7 receptor (Homo sapiens (Human), UniProt Q99572); assay: Pore permeation assay (YO PRO dye uptake); format: cell-based; conditions: not given
Protocol: Agonist-induced pore formation was determined by measuring cellular uptake of YO PRO fluorescence dye in HEK293 transfected with human P2X7 receptor. A HEK293 cell over expressing human P2X7 was harvested using HQTase reagent to detach the cells from T75 cm flask. The harvested cells are centrifuged @1200 rpm for 5 min at room temperature. The viability of cells was determined by Trypan blue dye and the cells are plated @10,000 cell/well in 50 ul volume in a 384W BD Poly lysine coated plate and incubated overnight at 37 C. […] The plate was centrifuged at 1000 rpm for 5 seconds and incubated at room temperature for 30 minutes. The uptake of YO PRO dye into the cells was measured using Envision Fluorescence plate reader instrument (Perkin Elmer).

Sequence of human P2X7 receptor (Q99572 whole entry): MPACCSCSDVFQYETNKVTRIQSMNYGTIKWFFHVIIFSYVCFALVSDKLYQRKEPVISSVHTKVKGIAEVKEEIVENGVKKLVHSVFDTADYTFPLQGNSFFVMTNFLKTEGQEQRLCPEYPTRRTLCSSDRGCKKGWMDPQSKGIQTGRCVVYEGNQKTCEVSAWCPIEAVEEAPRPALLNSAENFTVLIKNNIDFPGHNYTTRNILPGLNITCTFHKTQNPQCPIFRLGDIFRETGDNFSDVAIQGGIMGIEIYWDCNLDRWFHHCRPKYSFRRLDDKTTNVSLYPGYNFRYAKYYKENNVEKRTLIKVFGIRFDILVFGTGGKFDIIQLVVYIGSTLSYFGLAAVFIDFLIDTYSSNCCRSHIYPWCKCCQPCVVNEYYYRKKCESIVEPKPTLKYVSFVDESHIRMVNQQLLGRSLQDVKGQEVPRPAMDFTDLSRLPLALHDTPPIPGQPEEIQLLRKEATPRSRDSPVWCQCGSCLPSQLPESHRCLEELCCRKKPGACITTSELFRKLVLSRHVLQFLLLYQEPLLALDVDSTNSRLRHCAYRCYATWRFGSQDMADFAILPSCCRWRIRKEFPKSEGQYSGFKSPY

`O=C(NCC1CCC(F)(F)CC1)c1cn(CCC(F)F)c2cccc(Cl)c12` [Compound 11, 4-Chloro-1-(3,3-difluoro-propyl)-1H-indole-3-carboxylic acid (4,4-di fluoro-cyclohexyl methyl)-amide] and `COCCn1cc(C(=O)NC[C@]2(O)CCC[C@H](C)C2)c2c(Cl)cccc21` [Compound 14, 4-Chloro-1-(2-methoxy-ethyl)-1H-indole-3-carboxylic acid ((1S,3S)-1-hydroxy-3-methyl-cyclohexylmethyl)-amide] fall in the same range of IC50: 10 to 100 nM for the first, 10 to 100 nM for the second.

Compared with `COCCn1cc(C(=O)NC[C@@]2(O)CCC[C@@H](C)C2)c2c(Cl)cccc21` [Compound 15, 4-Chloro-1-(2-methoxy-ethyl)-1H-indole-3-carboxylic acid ((1R,3R)-1-hydroxy-3-methyl-cyclohexylmethyl)-amide], `COCCn1cc(C(=O)NCCC2(O)CCCC2)c2c(Cl)cccc21` [Compound 16, 4-Chloro-1-(2-methoxy-ethyl)-1H-indole-3-carboxylic acid [2-(1-hydroxy-cyclopentyl)-ethyl]-amide] is higher in IC50: 10 to 100 nM for the first, 500 to 999 nM for the second. The first is the more potent here.

`COCCn1cc(C(=O)NCc2ccccc2C(F)(F)F)c2c(Cl)cccc21` [Compound 24, 4-Chloro-1-(2-methoxy-ethyl)-1H-indole-3-carboxylic acid 2-trifluoromethyl-benzylamide] and `COCCn1cc(C(=O)NCc2ccccc2F)c2c(Cl)cccc21` [Compound 25, 4-Chloro-1-(2-methoxy-ethyl)-1H-indole-3-carboxylic acid 2-fluoro-benzylamide] fall in the same range of IC50: 500 to 999 nM for the first, 500 to 999 nM for the second.

Compared with `COCCn1cc(C(=O)NC2COc3ccccc3C2)c2c(Cl)cccc21` (centres unmarked) [Compound 29, 4-Chloro-1-(2-methoxy-ethyl)-1H-indole-3-carboxylic acid chroman-3-ylamide], `O=C(NCC(F)F)c1cn(C2COC2)c2cccc(Cl)c12` [Compound 76, 4-Chloro-1-oxetan-3-yl-1H-indole-3-carboxylic acid (2,2-difluoro-ethyl)-amide] is higher in IC50: 101 to 500 nM for the first, over 1000 nM for the second. The first is the more potent here.

`CC1CC(O)(CNC(=O)c2cn(C3COC3)c3cccc(Cl)c23)CCC1(F)F` (centres unmarked) [Compound 46, 4-chloro-N-((4,4-difluoro-1-hydroxy-3-methylcyclohexyl)methyl)-1-(oxetan-3-yl)-1H-indole-3-carboxamide] and `O=C(NCC1(O)CCCC2(CC2)C1)c1cn(C2COC2)c2cccc(Cl)c12` (centres unmarked) [Compound 57, 4-chloro-N-((5-hydroxyspiro[2.5]octan-5-yl)methyl)-1-(oxetan-3-yl)-1H-indole-3-carboxamide] fall in the same range of IC50: 101 to 500 nM for the first, 101 to 500 nM for the second.

First: CC(O)(CNC(=O)c1cn(C2COC2)c2cccc(Cl)c12)C1CCCC1 (centres unmarked) [Compound 49, 4-Chloro-1-oxetan-3-yl-1H-indole-3-carboxylic acid (2-cyclopentyl-2-hydroxy-propyl)-amide]
Second: CC(C)(CNC(=O)c1cn(C2COC2)c2cccc(Cl)c12)C1CCCC1 [Compound 50, 4-Chloro-1-oxetan-3-yl-1H-indole-3-carboxylic acid (2-cyclopentyl-2-methyl-propyl)-amide]
The IC50 of the first is higher: 500 to 999 nM for the first, 101 to 500 nM for the second.

First: O=C(N[C@@H](C1CCCCC1)C(F)(F)F)c1cn(C2COC2)c2cccc(Cl)c12 [Compound 52, 4-Chloro-1-oxetan-3-yl-1H-indole-3-carboxylic acid ((S)-1-cyclohexyl-2,2,2-trifluoro-ethyl)-amide]
Second: O=C(NC1(C2CCCCC2)CC1)c1cn(C2COC2)c2cccc(Cl)c12 [Compound 55, 4-Chloro-1-oxetan-3-yl-1H-indole-3-carboxylic acid (1-cyclohexyl-cyclopropyl)-amide]
The IC50 of the first is higher: 500 to 999 nM for the first, 101 to 500 nM for the second.

same assay, conditions: HEK293 transfected with human P2X7; BzATP 10 uM; YO PRO dye uptake; read-out: hP2X7 IC50

“4-Chloro-1-(tetrahydro-furan-3-yl)-1H-indole-3-carboxylic acid (2-cyclopentyl-2-hydroxy-propyl)-amide [Compound 102]” and `COCCn1cc(C(=O)NCc2cccc3c2OCCO3)c2c(Cl)cccc21` [Compound 23, 4-Chloro-1-(2-methoxy-ethyl)-1H-indole-3-carboxylic acid (2,3-dihydro-benzo[1,4]dioxin-5-ylmethyl)-amide] cannot be ordered by IC50: over 1000 nM for the first, over 1000 nM for the second.

`COCCn1cc(C(=O)NCc2ccc(C(F)(F)F)cc2)c2c(Cl)cccc21` [Compound 26, 4-Chloro-1-(2-methoxy-ethyl)-1H-indole-3-carboxylic acid 4-trifluoro methyl-benzylamide] and `COCCn1cc(C(=O)NCc2ccc3c(c2)OCO3)c2c(Cl)cccc21` [Compound 27, 4-Chloro-1-(2-methoxy-ethyl)-1H-indole-3-carboxylic acid (benzo [1,3]dioxol-5-ylmethyl)-amide] cannot be ordered by IC50: over 1000 nM for the first, over 1000 nM for the second.

`COCCn1cc(C(=O)NCc2ccco2)c2c(Cl)cccc21` [Compound 28, 4-Chloro-1-(2-methoxy-ethyl)-1H-indole-3-carboxylic acid (furan-2-ylmethyl)-amide] and `COCCn1cc(C(=O)NCc2nc3ccccc3s2)c2c(Cl)cccc21` [Compound 31, N-(benzo[d]thiazol-2-ylmethyl)-4-chloro-1-(2-methoxyethyl)-1H-indole-3-carboxamide] cannot be ordered by IC50: over 1000 nM for the first, over 1000 nM for the second.

`O=C(NC(C1CCCC1)C(F)(F)F)c1cn(C2COC2)c2cccc(Cl)c12` (centres unmarked) [Compound 42, 4-chloro-N-(1-cyclopentyl-2,2,2-trifluoroethyl)-1-(oxetan-3-yl)-1H-indole-3-carboxamide] and `O=C(NC(C1CCCCC1)C(F)(F)F)c1cn(C2COC2)c2cccc(Cl)c12` (centres unmarked) [Compound 43, 4-chloro-N-(1-cyclohexyl-2,2,2-trifluoroethyl)-1-(oxetan-3-yl)-1H-indole-3-carboxamide] cannot be ordered by IC50: over 1000 nM for the first, over 1000 nM for the second.

First: O=C(NCC1(O)CCCC(C(F)(F)F)C1)c1cn(C2COC2)c2cccc(Cl)c12 (centres unmarked) [Compound 47, 4-chloro-N-((1-hydroxy-3-(trifluoromethyl)cyclohexyl)methyl)-1-(oxetan-3-yl)-1H-indole-3-carboxamide]
Second: CC(C)(NC(=O)c1cn(C2COC2)c2cccc(Cl)c12)[C@]12C[C@H]3C[C@H](C[C@H](C3)C1)C2 [Compound 54, 4-Chloro-1-oxetan-3-yl-1H-indole-3-carboxylic acid (1-adamantan-1-yl-1-methyl-ethyl)-amide]
The IC50 of the first is higher: over 1000 nM for the first, 101 to 500 nM for the second. The second is the more potent here.

First: O=C(NC(c1cccs1)C1CCCCC1)c1cn(C2COC2)c2cccc(Cl)c12 (centres unmarked) [Compound 60, 4-Chloro-1-oxetan-3-yl-1H-indole-3-carboxylic acid (cyclohexyl-thiophen-2-yl-methyl)-amide]
Second: C[C@@H](NC(=O)c1cn(C2COC2)c2cccc(Cl)c12)[C@@]12C[C@@H]3C[C@@H](C[C@@](O)(C3)C1)C2 [Compound 61, 4-Chloro-1-oxetan-3-yl-1H-indole-3-carboxylic acid [(3-hydroxy-adamantan-1-yl)-ethyl]-amide]
The IC50 of the first is higher: over 1000 nM for the first, 500 to 999 nM for the second.

`O=C(N[C@@H](CO)C1CCCCC1)c1cn(C2COC2)c2cccc(Cl)c12` [Compound 63, 4-Chloro-1-oxetan-3-yl-1H-indole-3-carboxylic acid ((R)-1-cyclohexyl-2-hydroxy-ethyl)-amide] and `CC1(CCNC(=O)c2cn(C3COC3)c3cccc(Cl)c23)OCCO1` [Compound 71, 4-Chloro-1-oxetan-3-yl-1H-indole-3-carboxylic acid [2-(2-methyl-dioxolan-2-yl)-ethyl]-amide] cannot be ordered by IC50: over 1000 nM for the first, over 1000 nM for the second.

Work on `O=C(NCCC(F)(F)F)c1cn(C2COC2)c2cccc(Cl)c12` [Compound 77, 4-Chloro-1-oxetan-3-yl-1H-indole-3-carboxylic acid (3,3,3-trifluoro-propyl)-amide] yielded an IC50 of over 1000 nM.
